# According to PMC12141164, “Phase-1 study of vamotinib (PF-114), a 3rd generation BCR::ABL1 tyrosine kinase-inhibitor, in chronic myeloid leukaemia” (Annals of Hematology, 2025):
# Values joined by “and” are separate entries in the source; they are usually repeats but may differ in a detail not shown here. Identical values can stand only once.
# Tested on: BCR::ABL1 positive CML
# Experiment: Phase-1 study: haematological, cytogenetic and molecular response
# Type: in vivo, human
# Description: Haematological response evaluations were done on the first day of each cycle of therapy; molecular response on the first day of cycles 1, 2, 4, 7, 10, 13 and then every three months; cytogenetic response – at screening and on the first days of cycles 4, 7, 13 and every three months thereafter, provided that there was no major molecular response.
# Cytogenetic response was assessed by differential staining of chromosomes and if uninformative, by fluorescent in situ hybridization (FISH). Mutations in BCR::ABL1 were assessed by Sanger and next generation sequencing (NGS). Sanger sequencing was done at each center; NGS analyses were done in the laboratory of Prof. Susan Branford, University of Adelaide. Discordances were resolved as described in Table S2. Molecular response was assessed using the ratio of BCR::ABL1 to ABL1 measured according to the IS [9].
smiles,measurement,setting,value
Cc1ccc(C(=O)Nc2ccc(CN3CCN(C)CC3)c(C(F)(F)F)c2)cc1C#Cc1nnc2ccccn12 [vamotinib],CCyR,Advanced phase CML (N = 5),none and 0/5
same,MCyR,Advanced phase CML (N = 5),none and 0/5
same,MMR,Advanced phase CML (N = 5),0/5
same,subjects with BCR::ABL1^T315I who responded,BCR::ABL1^T315I,5 of 16 subjects
same,CCyR achieved at treatment,Cohort 1 50 mg N=3,0 no. (%)
same,CCyR by 6 months,Cohort 1 50 mg N=3,0 no. (%)
same,CCyR by 12 months,Cohort 1 50 mg N=3,0 no. (%)
same,CHR achieved at treatment,Cohort 1 50 mg N=3,1 (50) no. (%)
same,CHR by the 3 months,Cohort 1 50 mg N=3,0 no. (%)
same,CHR by the 6th months,Cohort 1 50 mg N=3,0 no. (%)
same,CHR by the 12th months,Cohort 1 50 mg N=3,1 (50) no. (%)
same,MCyR achieved at treatment,Cohort 1 50 mg N=3,0 no. (%)
same,MCyR by 6 months,Cohort 1 50 mg N=3,0 no. (%)
same,MCyR by 12 months,Cohort 1 50 mg N=3,0 no. (%)
same,MMR achieved at treatment,Cohort 1 50 mg N=3,0 no. (%)
same,MMR by 6 months,Cohort 1 50 mg N=3,0 no. (%)
same,MMR by 12 months,Cohort 1 50 mg N=3,0 no. (%)
same,MMR by 24 months,Cohort 1 50 mg N=3,0 no. (%)
same,Subjects with loss of CCyR,Cohort 1 50 mg N=3,0 no. (%)
same,Subjects with loss of CHR,Cohort 1 50 mg N=3,0 no. (%)
same,Subjects with loss of MCyR,Cohort 1 50 mg N=3,0 no. (%)
same,Subjects with loss of MMR,Cohort 1 50 mg N=3,0 no. (%)
same,CCyR achieved at treatment,Cohort 2 100 mg N=3,1 (33) no. (%)
same,CCyR by 6 months,Cohort 2 100 mg N=3,0 no. (%)
same,CCyR by 12 months,Cohort 2 100 mg N=3,0 no. (%)
same,CHR achieved at treatment,Cohort 2 100 mg N=3,0 no. (%)
same,CHR by the 3 months,Cohort 2 100 mg N=3,0 no. (%)
same,CHR by the 6th months,Cohort 2 100 mg N=3,0 no. (%)
same,CHR by the 12th months,Cohort 2 100 mg N=3,0 no. (%)
same,MCyR by 6 months,Cohort 2 100 mg N=3,1 (33) no. (%)
same,MCyR by 12 months,Cohort 2 100 mg N=3,1 (33) no. (%)
same,MMR achieved at treatment,Cohort 2 100 mg N=3,1 (33) no. (%)
same,MMR by 6 months,Cohort 2 100 mg N=3,0 no. (%)
same,MMR by 12 months,Cohort 2 100 mg N=3,0 no. (%)
same,MMR by 24 months,Cohort 2 100 mg N=3,1 (33) no. (%)
same,Subjects with loss of CCyR,Cohort 2 100 mg N=3,0 no. (%)
same,Subjects with loss of CHR,Cohort 2 100 mg N=3,0 no. (%)
same,Subjects with loss of MCyR,Cohort 2 100 mg N=3,0 no. (%)
same,Subjects with loss of MMR,Cohort 2 100 mg N=3,0 no. (%)
same,CCyR achieved at treatment,Cohort 3 200 mg N=11,3 (30) no. (%)
same,CCyR by 6 months,Cohort 3 200 mg N=11,2 (20) no. (%)
same,CCyR by 12 months,Cohort 3 200 mg N=11,2 (20) no. (%)
same,CHR achieved at treatment,Cohort 3 200 mg N=11,2 (40) no. (%)
same,CHR by the 3 months,Cohort 3 200 mg N=11,2 (40) no. (%)
same,CHR by the 6th months,Cohort 3 200 mg N=11,2 (40) no. (%)
same,CHR by the 12th months,Cohort 3 200 mg N=11,2 (40) no. (%)
same,MCyR achieved at treatment,Cohort 3 200 mg N=11,4 (50) no. (%)
same,MCyR by 6 months,Cohort 3 200 mg N=11,3 (38) no. (%)
same,MCyR by 12 months,Cohort 3 200 mg N=11,3 (38) no. (%)
same,MMR achieved at treatment,Cohort 3 200 mg N=11,2 (18) no. (%)
same,MMR by 6 months,Cohort 3 200 mg N=11,1 (9) no. (%)
same,MMR by 12 months,Cohort 3 200 mg N=11,1 (9) no. (%)
same,MMR by 24 months,Cohort 3 200 mg N=11,2 (18) no. (%)
same,Subjects with loss of CCyR,Cohort 3 200 mg N=11,1 (33) no. (%)
same,Subjects with loss of CHR,Cohort 3 200 mg N=11,2 (100) no. (%)
same,Subjects with loss of MCyR,Cohort 3 200 mg N=11,1 (25) no. (%)
same,Subjects with loss of MMR,Cohort 3 200 mg N=11,0 no. (%)
same,CCyR achieved at treatment,Cohort 4 400 mg N=12,1 (8) no. (%)
same,CCyR by 6 months,Cohort 4 400 mg N=12,1 (8) no. (%)
same,CCyR by 12 months,Cohort 4 400 mg N=12,1 (8) no. (%)
same,CHR achieved at treatment,Cohort 4 400 mg N=12,4 (57) no. (%)
same,CHR by the 3 months,Cohort 4 400 mg N=12,2 (29) no. (%)
same,CHR by the 6th months,Cohort 4 400 mg N=12,2 (29) no. (%)
same,CHR by the 12th months,Cohort 4 400 mg N=12,4 (57) no. (%)
same,MCyR achieved at treatment,Cohort 4 400 mg N=12,2 (19) no. (%)
same,MCyR by 6 months,Cohort 4 400 mg N=12,2 (19) no. (%)
same,MCyR by 12 months,Cohort 4 400 mg N=12,2 (19) no. (%)
same,MMR achieved at treatment,Cohort 4 400 mg N=12,0 no. (%)
same,MMR by 6 months,Cohort 4 400 mg N=12,0 no. (%)
same,MMR by 12 months,Cohort 4 400 mg N=12,0 no. (%)
same,MMR by 24 months,Cohort 4 400 mg N=12,0 no. (%)
same,Subjects with loss of CCyR,Cohort 4 400 mg N=12,0 no. (%)
same,Subjects with loss of CHR,Cohort 4 400 mg N=12,4 (100) no. (%)
same,Subjects with loss of MCyR,Cohort 4 400 mg N=12,0 no. (%)
same,Subjects with loss of MMR,Cohort 4 400 mg N=12,0 no. (%)
same,CCyR achieved at treatment,Cohort 5 500 mg N=3,0 no. (%)
same,CCyR by 6 months,Cohort 5 500 mg N=3,0 no. (%)
same,CCyR by 12 months,Cohort 5 500 mg N=3,0 no. (%)
same,CHR achieved at treatment,Cohort 5 500 mg N=3,0 no. (%)
same,CHR by the 3 months,Cohort 5 500 mg N=3,0 no. (%)
same,CHR by the 6th months,Cohort 5 500 mg N=3,0 no. (%)
same,CHR by the 12th months,Cohort 5 500 mg N=3,0 no. (%)
same,MCyR achieved at treatment,Cohort 5 500 mg N=3,0 no. (%)
same,MCyR by 6 months,Cohort 5 500 mg N=3,0 no. (%)
same,MCyR by 12 months,Cohort 5 500 mg N=3,0 no. (%)
same,MMR achieved at treatment,Cohort 5 500 mg N=3,0 no. (%)
same,MMR by 6 months,Cohort 5 500 mg N=3,0 no. (%)
same,MMR by 12 months,Cohort 5 500 mg N=3,0 no. (%)
same,MMR by 24 months,Cohort 5 500 mg N=3,0 no. (%)
same,Subjects with loss of CCyR,Cohort 5 500 mg N=3,0 no. (%)
same,Subjects with loss of CHR,Cohort 5 500 mg N=3,0 no. (%)
